Target: T1, CYP2A6 (Homo sapiens, UniProt P11509)
T1 sequence (P11509 1-494): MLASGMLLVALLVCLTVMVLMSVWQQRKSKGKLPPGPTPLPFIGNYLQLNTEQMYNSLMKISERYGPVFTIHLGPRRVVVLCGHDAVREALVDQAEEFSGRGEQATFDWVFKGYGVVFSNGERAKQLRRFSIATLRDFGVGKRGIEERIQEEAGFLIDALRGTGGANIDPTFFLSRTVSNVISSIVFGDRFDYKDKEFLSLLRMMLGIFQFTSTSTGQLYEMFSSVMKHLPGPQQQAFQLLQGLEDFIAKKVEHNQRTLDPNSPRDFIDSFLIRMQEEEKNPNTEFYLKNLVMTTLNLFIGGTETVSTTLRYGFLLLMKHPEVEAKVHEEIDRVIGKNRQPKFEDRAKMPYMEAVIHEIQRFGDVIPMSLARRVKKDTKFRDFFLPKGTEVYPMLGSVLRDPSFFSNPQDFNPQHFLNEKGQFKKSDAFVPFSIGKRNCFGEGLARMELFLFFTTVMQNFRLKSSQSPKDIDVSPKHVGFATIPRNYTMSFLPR
Assay: CYP2A6 inhibition assay (substrate coumarin)
Settings: 0.0169 to […] tested, na = concentration-dependent inhibition not observed
Excerpt: The CYP inhibition assays used microsomes (Supersomes®, Gentest Corp., Woburn, Mass.) prepared from insect cells, each expressing an individual CYP subtype (CYP1A2, CYP2A6, CYP2B6, CYP2C8, CYP2C9, CYP2C19, CYP2D6, CYP2E1 or CYP3A4) expressed from the corresponding human CYP cDNA using a baculovirus expression vector. The microsomes also incorporated supplemental cDNA-expressed human reductase and/or cytochrome b5, as these enzymes stimulate the activity of the CYPs, allowing for a reduction in the amount of enzyme required per reaction (Gentest Corp.). The assays monitored, via fluorescence detection, the formation of a fluorescent metabolite following incubation of the microsomes with a specific CYP substrate. […] Reactions (0.2 mL) were performed in 96-well microtitre plates at 37° C. in the presence of an NADPH regenerating system [NADP+, glucose-6-phosphate (G6P), glucose-6-phosphate dehydrogenase (G6PDH)] and MgCl2. […] All determinations were performed in duplicate. The reagent solutions used for all of the CYP subtype assays, except CYP2C19 and CYP3A4, were prepared by MBDI. For CYP2C19 and CYP3A4, complete reagent kits purchased from Gentest Corp. (CYP2C19/CEC: Cat. No. HTS-4000, Lot No. 1; CYP3A4/BFC: Cat. No. HTS-1000, Lot No. 1) were used to perform the assays.
Eight inhibitor and test compound concentrations were tested using 3-fold serial dilutions. The microtitre plates containing 0.1 mL/well of the latter mixture were pre-warmed to 37° C. in an incubator. […] The amount of metabolic product formed was quantified by fluorescence detection in a fluorescence plate reader utilizing excitation and emission filters that had been optimized for the detection of each metabolite.
Data Analysis—The mean of the duplicate fluorescent signals in the presence and absence (vehicle control) of each compound was calculated and corrected for the background noise. Percent inhibition was calculated as the difference in the corrected fluorescent signals in the absence and presence of the compound, divided by the corrected fluorescent signal in the absence of compound, multiplied by 100%.

Cc1ncc(COP(=O)(O)O)c(C=O)c1O [P5P, pyridoxal-5-phosphate]
Pyridoxal 5′-phosphate IC50: did not inhibit
